From ChEMBL document CHEMBL1201862, “PubChem BioAssay data set” (2004)
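Cells were grown in 96-well plates and exposed to each compound for 48 hours at five concentrations; endpoints were interpolated linearly between bracketing concentrations, or set to the highest concentration if not reached. GI50 marks 50% less growth.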 Activity calls are given as the source filed them. Rule as the data show it: active = GI50 up to about 1.1 µM and inactive = higher.

Assays:
Assay in all cases: NCI tumour cell line growth inhibition, 48 h
SK-OV-3 = system: SK-OV-3
RPMI-8226 = system: RPMI-8226
BT-549 = system: BT-549
CAKI-1 = system: CAKI-1
UACC-62 = system: UACC-62
HOP-92 = system: HOP-92
HCT-15 = system: HCT-15
MOLT-4 = system: MOLT-4
Hs-578T = system: Hs-578T
ACHN = system: ACHN
Malme-3M = system: Malme-3M
SK-MEL-28 = system: SK-MEL-28
NCI-H522 = system: NCI-H522
OVCAR-3 = system: OVCAR-3
OVCAR-5 = system: OVCAR-5
K562 = system: K562
SK-MEL-2 = system: SK-MEL-2
SNB-19 = system: SNB-19
NCI/ADR-RES = system: NCI/ADR-RES
MDA-N = system: MDA-N
HL-60 = system: HL-60
PC-3 = system: PC-3
IGROV-1 = system: IGROV-1
NCI-H226 = system: NCI-H226
HOP-62 = system: HOP-62
NCI-H23 = system: NCI-H23
MDA-MB-231 = system: MDA-MB-231
SF-539 = system: SF-539
SW-620 = system: SW-620
UO-31 = system: UO-31
SN12C = system: SN12C
A498 = system: A498
HCT-116 = system: HCT-116
HT-29 = system: HT-29
U-251 = system: U-251
SF-295 = system: SF-295
MDA-MB-435 = system: MDA-MB-435
SF-268 = system: SF-268
TK-10 = system: TK-10
A549 = system: A549
NCI-H460 = system: NCI-H460
RXF 393 = system: RXF 393
SNB-75 = system: SNB-75
M14 = system: M14
SK-MEL-5 = system: SK-MEL-5
KM12 = system: KM12
CCRF-CEM = system: CCRF-CEM
UACC-257 = system: UACC-257
LOX IMVI = system: LOX IMVI
EKVX = system: EKVX
T47D = system: T47D
OVCAR-8 = system: OVCAR-8
DU-145 = system: DU-145
COLO 205 = system: COLO 205
786-0 = system: 786-0
MCF7 = system: MCF7
HCC 2998 = system: HCC 2998
OVCAR-4 = system: OVCAR-4

Measured: GI50

COC(=O)Cc1c(C2=Nc3ccccc3C2(O)CC(=O)OC)[nH]c2ccccc12 (stereo not drawn)
40.9 µM: HCT-15
active: IGROV-1 1.09 µM
inactive: SK-OV-3 > 100 µM | RPMI-8226 25.4 µM | BT-549 > 100 µM | CAKI-1 23 µM | UACC-62 > 100 µM | HOP-92 26.5 µM | MOLT-4 19.7 µM | Hs-578T 24.2 µM | ACHN 34.9 µM | Malme-3M 22.6 µM | SK-MEL-28 61.5 µM | NCI-H522 18.9 µM | OVCAR-3 62.1 µM | OVCAR-5 54.6 µM | K562 27 µM | SK-MEL-2 > 100 µM | SNB-19 55.8 µM | NCI/ADR-RES > 100 µM | MDA-N > 100 µM | HL-60 22 µM | PC-3 30 µM | NCI-H226 > 100 µM | HOP-62 > 100 µM | NCI-H23 > 100 µM | MDA-MB-231 45.2 µM | SF-539 29.6 µM | SW-620 47.3 µM | UO-31 68.5 µM | SN12C 68.5 µM | A498 > 100 µM | HCT-116 31.8 µM | HT-29 > 100 µM | U-251 34.5 µM | SF-295 45.8 µM | MDA-MB-435 > 100 µM | SF-268 > 100 µM | TK-10 > 100 µM | A549 94 µM | NCI-H460 > 100 µM | RXF 393 97.9 µM | SNB-75 > 100 µM | M14 78.2 µM | SK-MEL-5 60.4 µM | KM12 58.6 µM | CCRF-CEM 20.1 µM | UACC-257 > 100 µM | LOX IMVI 99.3 µM | EKVX 36.6 µM | T47D 15.5 µM | OVCAR-8 49.3 µM | DU-145 > 100 µM | COLO 205 20.3 µM | 786-0 41.5 µM

O=[N+]([O-])C(Cl)C(Cl)C(Cl)=C(Cl)Cl (stereo not drawn)
active: T47D 0.547 µM
18.7 µM: HCT-15
inactive: SK-OV-3 19.5 µM | BT-549 22.6 µM | CAKI-1 17.6 µM | UACC-62 16.6 µM | MOLT-4 19.1 µM | Hs-578T 25.1 µM | ACHN 16.4 µM | Malme-3M 14.8 µM | SK-MEL-28 18.5 µM | NCI-H522 21.4 µM | OVCAR-3 26 µM | OVCAR-5 > 50.2 µM | K562 29.8 µM | SNB-19 54 µM | NCI/ADR-RES 40.7 µM | MDA-N 19.1 µM | HL-60 10.4 µM | PC-3 > 41.3 µM | IGROV-1 13.3 µM | NCI-H226 > 100 µM | HOP-62 41.2 µM | NCI-H23 23.8 µM | MCF7 13.8 µM | MDA-MB-231 16.2 µM | SF-539 38.5 µM | SW-620 18 µM | UO-31 > 31.6 µM | SN12C 33.7 µM | A498 > 77.3 µM | HCT-116 19.4 µM | HT-29 17.6 µM | U-251 > 83.6 µM | SF-295 60 µM | HCC 2998 > 40.9 µM | MDA-MB-435 23.7 µM | SF-268 > 45.8 µM | TK-10 19.4 µM | A549 > 91.8 µM | NCI-H460 49.1 µM | RXF 393 18.5 µM | SNB-75 32.7 µM | M14 13.8 µM | SK-MEL-5 15 µM | KM12 > 66.7 µM | CCRF-CEM 23.7 µM | UACC-257 22.1 µM | LOX IMVI 14.4 µM | EKVX > 100 µM | OVCAR-4 16.7 µM | OVCAR-8 30.9 µM | DU-145 88.7 µM | COLO 205 17.5 µM | 786-0 7.85 µM

O=[N+]([O-])c1ccc(/N=N\c2c(O)ccc3ccccc23)c([N+](=O)[O-])c1
> 100 µM: HCT-15
inactive: SK-OV-3 > 100 µM | RPMI-8226 > 83.4 µM | BT-549 > 100 µM | CAKI-1 > 100 µM | UACC-62 > 100 µM | HOP-92 > 100 µM | MOLT-4 70.6 µM | Hs-578T > 100 µM | ACHN > 100 µM | Malme-3M > 100 µM | SK-MEL-28 > 100 µM | NCI-H522 > 100 µM | OVCAR-3 > 100 µM | OVCAR-5 > 100 µM | K562 19.8 µM | SK-MEL-2 > 100 µM | SNB-19 > 100 µM | NCI/ADR-RES > 100 µM | MDA-N > 100 µM | PC-3 > 100 µM | IGROV-1 > 32.7 µM | NCI-H226 > 100 µM | HOP-62 > 100 µM | NCI-H23 > 100 µM | MCF7 > 100 µM | MDA-MB-231 > 48.6 µM | SW-620 > 100 µM | UO-31 > 100 µM | SN12C > 100 µM | A498 > 100 µM | HCT-116 > 100 µM | HT-29 > 100 µM | U-251 > 100 µM | SF-295 > 100 µM | HCC 2998 > 100 µM | MDA-MB-435 > 100 µM | SF-268 > 100 µM | TK-10 > 90.4 µM | A549 > 100 µM | NCI-H460 > 100 µM | RXF 393 > 100 µM | SNB-75 > 100 µM | M14 > 100 µM | SK-MEL-5 > 100 µM | KM12 > 100 µM | CCRF-CEM 29.4 µM | UACC-257 > 100 µM | LOX IMVI > 100 µM | EKVX > 60.4 µM | T47D > 100 µM | OVCAR-4 > 100 µM | OVCAR-8 > 100 µM | DU-145 > 100 µM | COLO 205 > 100 µM | 786-0 > 100 µM

O=C(O)c1cc2ccccc2c(S(=O)(=O)O)c1O
inactive: SK-OV-3 > 100 µM | RPMI-8226 > 100 µM | BT-549 > 100 µM | CAKI-1 > 100 µM | UACC-62 > 100 µM | HOP-92 > 100 µM | MOLT-4 > 100 µM | Hs-578T > 100 µM | ACHN > 100 µM | Malme-3M > 100 µM | SK-MEL-28 > 100 µM | NCI-H522 > 100 µM | OVCAR-3 > 100 µM | OVCAR-5 > 100 µM | K562 > 100 µM | SK-MEL-2 > 100 µM | SNB-19 > 100 µM | NCI/ADR-RES > 100 µM | MDA-N > 100 µM | HL-60 > 100 µM | PC-3 > 100 µM | IGROV-1 > 100 µM | HOP-62 > 100 µM | NCI-H23 > 100 µM | MCF7 > 100 µM | MDA-MB-231 > 100 µM | SF-539 > 100 µM | SW-620 > 100 µM | UO-31 > 100 µM | SN12C > 100 µM | A498 > 100 µM | HCT-116 > 100 µM | HT-29 > 100 µM | U-251 > 100 µM | SF-295 > 100 µM | HCC 2998 > 100 µM | MDA-MB-435 > 100 µM | SF-268 > 100 µM | TK-10 > 100 µM | A549 > 100 µM | NCI-H460 > 100 µM | RXF 393 > 100 µM | SNB-75 > 100 µM | M14 > 100 µM | SK-MEL-5 > 100 µM | KM12 > 100 µM | CCRF-CEM > 100 µM | UACC-257 > 100 µM | LOX IMVI > 100 µM | EKVX > 100 µM | T47D > 100 µM | OVCAR-4 > 100 µM | OVCAR-8 > 100 µM | DU-145 > 100 µM | COLO 205 > 100 µM | 786-0 > 100 µM
> 100 µM: HCT-15
